Laboratory results published in US7211576B2, “Diaminothiazoles” (Hoffmann-La Roche Inc., priority 2004, dated 2007).

Tests used:
[1] = molecular target: human cyclin D1-CDK4 (Homo sapiens, UniProt P11802); test: FlashPlate kinase assay, cyclin D1-CDK4; type: biochemical; details: Rb protein substrate, 1 μM ATP, 33P-ATP, 30 minutes room temperature; read-out: CDK4 IC50
[2] = molecular target: human cyclin E-CDK2 (Homo sapiens, UniProt P24941); test: FlashPlate kinase assay, cyclin E-CDK2; type: biochemical; details: Rb protein substrate, 1 μM ATP, 33P-ATP, 30 minutes room temperature
Protocol: To determine inhibition of Cdk4, Cdk2 and Cdk1 activity, kinase assays were conducted using FlashPlate™ assays (NEN™-Life Science Products). FlashPlate assays were performed using recombinant human cyclin B-CDK1, human cyclin E-CDK2 or human cyclin D1-CDK4 complexes. GST-cyclinE (GST-cycE), CDK2, GST-cyclinB (GST-cycB), CDK1, GST-CDK4 and cyclin D1 (cycD1) cDNA clones in baculovirus vectors were provided by Dr. W. Harper at the Baylor College of Medicine, Houston, Tex. Proteins were co-expressed in High Five™ insect cells and the complex was purified on glutathione Sepharose resin (Pharmacia, Piscataway, N.J.) as previously described (Harper, J. W. et al. Cell 1993, 75, 805–816). A 6×-Histidine tagged truncated form of retinoblastoma (Rb) protein (amino acid 386–928) was used as the substrate for the cycD1-CDK4, cycB-CDK1 and the cycE-CDK2 assays (the expression plasmid was provided by Dr. Veronica Sullivan, Department of Molecular Virology, Roche Research Centre, Welwyn Garden City, United Kingdom). The Rb protein is a natural substrate for phosphorylation by CDK4, CDK2 and CDK1 (see Herwig and Strauss Eur. J. Biochem. Vol. 246 (1997) pp. 581–601 and the references cited therein).
The expression of the 62Kd protein was under the control of an IPTG inducible promoter in an M15 E. coli strain. Cells were lysed by sonication and purification was carried out by binding lysates at pH 8.0 to a Ni-chelated agarose column pretreated with 1 mM imidazole. The resin was then washed several times with incrementally decreasing pH buffers to pH 6.0, and eluted with 500 mM imidazole. Eluted protein was dialysed against 20 mM HEPES pH 7.5, 30% glycerol, 200 mM NaCl, and 1 mM DTT. Purified Rb fusion protein stocks were quantitated for protein concentration, aliquoted, and stored at −70° C.
For all three kinase assays reported herein, 96-well FlashPlates were coated with Rb protein at 10 μg/ml, using 100 μl per well. Plates were incubated at 4° C. overnight or at room temperature for 3 hours on a shaker. To control for nonspecific phosphorylation, one row of wells was coated with 100 μl/well coating buffer (20 mM HEPES, 0.2 M NaCl). Plates were then washed twice with wash buffer (0.01% Tween 20 in phosphate-buffered saline). Compounds to be tested (“test compounds”) were added to the wells at 5× final concentration. Reactions were initiated by immediate addition of 40 μl reaction mix (25 mM HEPES, 20 mM MgCl2, 0.002% Tween 20, 2 mM DTT, 1 μM ATP, 4 nM ^33P-ATP) and a sufficient amount of enzyme to give counts that were at least 10-fold above background. Plates were incubated at room temperature on a shaker for 30 minutes. Plates were washed four times with the wash buffer, sealed, and counted on the TopCount scintillation counter (Packard Instrument Co., Downers Grove, Ill.]. The percent inhibition of Rb phosphorylation, which is a measure of the inhibition of CDK activity, was determined according to the following formula:
[formula] where “test compound” refers to the average counts per minute of the test duplicates, “nonspecific” refers to the average counts per minute when no CyclinD/Cdk4, etc., was added, and “total” refers to the average counts per minute when no compound was added. The IC50 value is the concentration of test compound that reduces by 50% the protein-kinase induced incorporation of the radiolabel under the test conditions described.

[3] = molecular target: human cyclin B-CDK1 (Homo sapiens, UniProt P06493); test: FlashPlate kinase assay, cyclin B-CDK1; type: biochemical; details: Rb protein substrate, 1 μM ATP, 33P-ATP, 30 minutes room temperature
Sequence of human cyclin B-CDK1 (P06493 whole entry): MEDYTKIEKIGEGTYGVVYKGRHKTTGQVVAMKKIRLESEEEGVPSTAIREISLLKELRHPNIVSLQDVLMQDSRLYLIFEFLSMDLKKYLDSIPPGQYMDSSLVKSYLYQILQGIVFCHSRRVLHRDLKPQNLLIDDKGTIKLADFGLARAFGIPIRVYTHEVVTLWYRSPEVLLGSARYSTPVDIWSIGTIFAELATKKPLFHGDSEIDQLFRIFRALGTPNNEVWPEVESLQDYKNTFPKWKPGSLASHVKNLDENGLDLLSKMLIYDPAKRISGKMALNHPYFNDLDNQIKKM
Sequence of human cyclin B-CDK1 (P14635 whole entry partner): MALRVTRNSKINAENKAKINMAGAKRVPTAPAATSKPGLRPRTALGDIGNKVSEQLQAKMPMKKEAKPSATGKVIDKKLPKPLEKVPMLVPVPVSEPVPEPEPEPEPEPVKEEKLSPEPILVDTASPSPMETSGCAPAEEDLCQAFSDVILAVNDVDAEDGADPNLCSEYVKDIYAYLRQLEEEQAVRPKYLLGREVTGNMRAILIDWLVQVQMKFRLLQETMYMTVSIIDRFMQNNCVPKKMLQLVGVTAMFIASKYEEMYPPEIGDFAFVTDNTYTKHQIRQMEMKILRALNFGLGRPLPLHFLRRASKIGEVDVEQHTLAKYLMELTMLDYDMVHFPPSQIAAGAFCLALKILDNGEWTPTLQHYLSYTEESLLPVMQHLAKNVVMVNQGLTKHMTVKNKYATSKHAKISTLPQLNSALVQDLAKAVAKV

[4] = tested on: HCT116, a colorectal carcinoma cell line; test: Tetrazolium dye (MTT) proliferation assay; type: cell-based; details: Homo sapiens, HCT-116; HCT116 cells, inhibition of cell proliferation
Protocol: Proliferation was evaluated by the tetrazolium dye assay according to the procedure of Denizot and Lang (Denizot, F. and Lang, R. J Immunol Methods 1986, 89, 271–277). The cell line used was HCT116, a colorectal carcinoma cell line obtained from the American Type Cell Culture Collection (ATCC; Rockville, Md.). The cells were grown in McCoy's 5A medium supplemented with 10% FCS and L-glutamine.
Cells were plated at the appropriate seeding density to give logarithmic growth over the course of the assay in a 96-well tissue culture plate. Plates were incubated overnight at 37° C. in a humidified incubator with 5% CO2. The next day, test compounds were serially diluted to four times the final concentration in the appropriate medium containing 1.2% DMSO. One-fourth final volume of each dilution was added in duplicate to the plates containing cells. The same volume of 1.2% DMSO in medium was added to a row of “control wells” such that the final concentration of DMSO in each well was 0.3%. Wells to which no cells were added served as the “blank.” Wells to which no inhibitor was added served as “no inhibitor control.” The plates were) returned to the incubator, and at set time points (determined by their growth curves) plates were analyzed as described below.
3-(4,5-dimethylthiazole-2-yl)-2,5-diphenyl-2H-tetrazolium bromide (thiazolyl blue; MTT; Sigma) was added to each well to yield a final concentration of 1 mg/ml. Plates were returned to the incubator for 2.5–3 hours at 37° C. The MTT-containing medium was removed and the resulting formazan metabolite was solubilized in 100% ethanol with shaking for 15 minutes at room temperature. Absorbance readings were taken in a microtiter plate reader (Dynatech and Molecular Devices plate readers were used interchangeably) at a wavelength of 570 nm with a 650 nm reference. Percent inhibition (% INH) is calculated by subtracting the absorbance of the blank well from all wells, then subtracting the ratio of the average absorbance of each test duplicate (SAVE) by the average of the controls (CAVE) from 1.00. The final number is then multiplied by 100 (% INH=(1.00−SAVE/CAVE)×100). The concentration at which 50% inhibition of cell proliferation is obtained (the IC50) is determined from the linear regression of a plot of the logarithm of the concentration versus percent inhibition.

Sequence of human cyclin D1-CDK4 (P11802 whole entry): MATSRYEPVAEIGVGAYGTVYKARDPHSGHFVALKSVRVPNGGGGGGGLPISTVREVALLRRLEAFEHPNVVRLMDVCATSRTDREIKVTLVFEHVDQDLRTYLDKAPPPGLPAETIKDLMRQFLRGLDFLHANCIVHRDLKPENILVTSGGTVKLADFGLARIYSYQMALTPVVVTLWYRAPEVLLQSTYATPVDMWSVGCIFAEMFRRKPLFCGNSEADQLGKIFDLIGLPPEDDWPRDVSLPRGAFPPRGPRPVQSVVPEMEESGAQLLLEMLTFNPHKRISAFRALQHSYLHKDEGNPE
Sequence of human cyclin D1-CDK4 (P24385 whole entry partner): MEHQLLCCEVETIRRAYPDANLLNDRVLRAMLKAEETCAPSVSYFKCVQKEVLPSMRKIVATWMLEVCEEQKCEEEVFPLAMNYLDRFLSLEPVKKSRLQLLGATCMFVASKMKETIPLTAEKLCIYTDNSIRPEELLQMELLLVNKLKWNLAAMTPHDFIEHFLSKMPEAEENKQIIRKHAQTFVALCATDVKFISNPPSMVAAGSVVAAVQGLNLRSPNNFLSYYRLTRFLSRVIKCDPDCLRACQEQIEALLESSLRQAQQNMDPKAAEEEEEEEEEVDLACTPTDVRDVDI

Row | SMILES | IC50 [1] [nM] | IC50 [2] [nM] | IC50 [3] [nM] | IC50 [4] [nM]
1 | COc1ccc(C(=O)c2sc(Nc3ccc(N4CCC(N5CCCCC5)CC4)cc3)nc2N)cc1F [Example 31, [4-Amino-2-(4-[1,4′]bipiperidinyl-1′-yl-phenylamino)-thiazol-5-yl]-(3-fluoro-4-methoxy-phenyl)-methanone] | 28 | 4160 | 1720 | 3290
2 | Nc1nc(Nc2ccc(N3CCC(N4CCCCC4)CC3)cc2)sc1C(=O)c1ccc2c(c1)OCCO2 [Example 33, [4-Amino-2-(4-[1,4′]bipiperidinyl-1′-yl-phenylamino)-thiazol-5-yl]-(2,3-dihydro-benzo[1,4]dioxin-6-yl)-methanone] | 9 | 4950 | 950 | 1680
3 | COc1cccc(C(=O)c2sc(Nc3ccc(N4CCC(N5CCCCC5)CC4)cc3)nc2N)c1 [Example 34, [4-Amino-2-(4-[1,4′]bipiperidinyl-1′-yl-phenylamino)-thiazol-5-yl]-(3-methoxy-phenyl)-methanone] | 3640 | 952 | 1680 | 8
4 | Nc1nc(Nc2ccc(N3CCC(N4CCCC(O)C4)CC3)cc2)sc1C(=O)c1cccc(F)c1 (centres unmarked) [Example 35, {4-Amino-2-[4-(3-hydroxy-[1,4′]bipiperidinyl-1′-yl)-phenylamino]-thiazol-5-yl}-(3-fluoro-phenyl)-methanone] | 1090 | 120 | 740 | 18
5 | Nc1nc(Nc2ccc(N3CCC(N4CCCC(O)C4)CC3)cc2)sc1C(=O)c1ccc2c(c1)OCO2 (centres unmarked) [Example 37, {4-Amino-2-[4-(3-hydroxy-[1,4′]bipiperidinyl-1′-yl)-phenylamino]-thiazol-5-yl}-benzo[1,3]dioxol-5-yl-methanone] | 3520 | 520 | 1630 | 100

Next, values leading:

Row | IC50 [1] [nM] | IC50 [2] [nM] | IC50 [3] [nM] | IC50 [4] [nM] | SMILES
6 | 17 | 2890 | 216 | 2000 | Nc1nc(Nc2ccc(N3CCC(N4CCCC4)CC3)cc2)sc1C(=O)c1ccc2c(c1)OCO2 [Example 25, {4-Amino-2-[4-(4-pyrrolidin-1-yl-piperidin-1-yl)-phenylamino]-thiazol-5-yl}-benzo[1,3]dioxol-5-yl-methanone]
7 | 5 | 4250 | 1060 | 2800 | Nc1nc(Nc2ccc(N3CCC(N4CCCC4)CC3)cc2)sc1C(=O)c1ccc2c(c1)OCCO2 [Example 26, {4-Amino-2-[4-(4-pyrrolidin-1-yl-piperidin-1-yl)-phenylamino]-thiazol-5-yl}-(2,3-dihydro-benzo[1,4]dioxin-6-yl)-methanone]
8 | 17 | 3490 | 1060 | 1850 | COc1cccc(C(=O)c2sc(Nc3ccc(N4CCC(N5CCCC5)CC4)cc3)nc2N)c1 [Example 27]
9 | 14 | 545 | 176 | 840 | Nc1nc(Nc2ccc(N3CCC(N4CCCCC4)CC3)cc2)sc1C(=O)c1cccc(F)c1 [Example 30, [4-Amino-2-(4-[1,4′]bipiperidinyl-1′-yl-phenylamino)-thiazol-5-yl]-(3-fluoro-phenyl)-methanone]
10 | 29 | 5740 | 1910 | 6640 | Nc1nc(Nc2ccc(N3CCC(N4CCCCC4)CC3)cc2)sc1C(=O)c1ccc2c(c1)OCO2 [Example 32, [4-Amino-2-(4-[1,4′]bipiperidinyl-1′-yl-phenylamino)-thiazol-5-yl]-benzo[1,3]dioxol-5-yl-methanone]
11 | 3630 | 3000 | 1730 | 9 | COc1ccc(C(=O)c2sc(Nc3ccc(N4CCC(N5CCCC(O)C5)CC4)cc3)nc2N)cc1F (centres unmarked) [Example 36, {4-Amino-2-[4-(3-hydroxy-[1,4′]bipiperidinyl-1′-yl)-phenylamino]-thiazol-5-yl}-(3-fluoro-4-methoxy-phenyl)-methanone]
